Results: patent publication US20240269139A1, “COMPOUNDS FOR TARGETED PROTEIN DEGRADATION OF KINASES” (DANA-FARBER CANCER INSTITUTE, INC., priority 2020, published 2024)
Where two headings read alike, the source gives them in different places.

Assays:
Format in all cases: cell-based
[1] = molecular target: protein kinases (human kinome) (Homo sapiens, UniProt P49840); settings: GSK3A P49840; experiment wp056
Excerpt: (§1) Although development of targeted protein degraders requires a POI binder, among already-liganded proteins such as kinases, it was hypothesized that different targets would have a different propensity for current approaches to degrader-mediated destruction, which was termed ‘degradability’. […] It was rationalized that the probability of identifying the same kinase as a false positive in multiple treatments is low, therefore this analysis served to also assess the robustness of our data and subsequent interpretations. […] Overall, 62 protein kinases were degraded in more than 10 independent treatments, and remarkably, 9 of these (CDK4, AURKA, FER, WEE1, BLK. LIMK2, CDK6, GAK, LIMK1) were each degraded in at least 40 of the 154 independent treatments, emphasizing their predisposition to induced degradation (FIG. 1G; Appendix I).
(§2) Next, the frequency of degradation assessment was corrected for over-representation of molecules in the full dataset by omitting replicate profiling of compounds under different experimental conditions, to remove any bias. […] Unsurprisingly, the top degradable kinases mirror those from the previous analysis (CDK4, AURKA, FER, WEE1, BLK), confirming that in sufficiently large datasets, even with over-representation of certain molecules, frequency of degradation is a good measure of general tractability.

[2] = molecular target: protein kinases (human kinome) (Homo sapiens, UniProt Q2M2I8)
Excerpt: as §1, §2

[3] = tested on: protein kinases (human kinome); settings: for logFC GSK3B: experiment wp056; for logFC: CDK9 (P50750-2) protein abundance, degrader vs DMSO, down; for logFC CSNK1D: experiment wp114
Excerpt: as §1, §2

[4] = molecular target: T1, protein kinases (human kinome) (Homo sapiens, UniProt O14965)
T1 sequence (O14965 1-403): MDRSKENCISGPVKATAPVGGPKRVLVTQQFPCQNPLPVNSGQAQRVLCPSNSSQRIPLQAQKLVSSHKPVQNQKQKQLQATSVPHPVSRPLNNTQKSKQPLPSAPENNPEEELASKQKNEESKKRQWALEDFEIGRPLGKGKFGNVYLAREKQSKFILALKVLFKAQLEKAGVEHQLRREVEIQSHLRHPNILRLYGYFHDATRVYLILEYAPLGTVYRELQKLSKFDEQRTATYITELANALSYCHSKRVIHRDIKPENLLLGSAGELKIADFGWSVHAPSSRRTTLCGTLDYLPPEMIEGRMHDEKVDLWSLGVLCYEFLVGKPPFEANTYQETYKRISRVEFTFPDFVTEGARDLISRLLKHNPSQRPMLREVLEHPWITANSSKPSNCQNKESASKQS
Excerpt: as §1, §2

[5] = molecular target: protein kinases (human kinome) (Homo sapiens, UniProt Q9NSY1); settings: BMP2K Q9NSY1; experiment wp056
Excerpt: as §1, §2

[6] = molecular target: protein kinases (human kinome) (Homo sapiens, UniProt Q14289)
Excerpt: as §1, §2

[7] = molecular target: protein kinases (human kinome) (Homo sapiens, UniProt Q00535)
Excerpt: as §1, §2

[8] = molecular target: protein kinases (human kinome) (Homo sapiens, UniProt P50613); settings: for logFC: CDK7 (P50613) protein abundance, degrader vs DMSO, down; for logFC CDK7: CDK7 P50613
Excerpt: as §1, §2

[9] = molecular target: protein kinases (human kinome) (Homo sapiens, UniProt Q9NYV4)
Excerpt: as §1, §2

[10] = molecular target: protein kinases (human kinome) (Homo sapiens, UniProt Q00537); settings: for logFC of CDK17: Accession Q00537; for logFC CDK17 (Q00537): direction of change down
Excerpt: as §1, §2

[11] = molecular target: protein kinases (human kinome) (Homo sapiens, UniProt P16591); settings: for logFC of FER (P16591-1): down; for logFC of FER: FER P16591-1
Excerpt: as §1, §2

[12] = molecular target: protein kinases (human kinome) (Homo sapiens, UniProt P51451)
Excerpt: as §1, §2

[13] = molecular target: protein kinases (human kinome) (Homo sapiens, UniProt P30291); settings: experiment wp016
Excerpt: as §1, §2

[14] = molecular target: T2, protein kinases (human kinome) (Homo sapiens, UniProt Q08881); settings: experiment wp016
T2 sequence (Q08881 1-620): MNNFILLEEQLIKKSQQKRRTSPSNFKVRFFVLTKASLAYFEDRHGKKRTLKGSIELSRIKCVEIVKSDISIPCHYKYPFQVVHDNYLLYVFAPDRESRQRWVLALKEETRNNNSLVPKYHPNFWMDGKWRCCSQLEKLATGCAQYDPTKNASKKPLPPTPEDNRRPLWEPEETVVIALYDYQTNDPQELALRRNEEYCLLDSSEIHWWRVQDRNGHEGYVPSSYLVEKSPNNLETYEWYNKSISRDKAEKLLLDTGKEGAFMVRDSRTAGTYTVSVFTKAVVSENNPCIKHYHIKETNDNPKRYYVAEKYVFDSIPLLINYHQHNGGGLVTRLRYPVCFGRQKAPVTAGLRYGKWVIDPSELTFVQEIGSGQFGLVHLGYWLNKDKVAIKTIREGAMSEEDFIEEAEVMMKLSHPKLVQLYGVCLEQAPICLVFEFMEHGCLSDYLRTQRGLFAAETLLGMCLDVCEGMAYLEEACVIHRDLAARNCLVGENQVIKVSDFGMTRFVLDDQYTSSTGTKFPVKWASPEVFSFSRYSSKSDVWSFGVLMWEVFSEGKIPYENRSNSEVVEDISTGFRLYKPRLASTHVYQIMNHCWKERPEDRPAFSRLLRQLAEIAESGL
Excerpt: as §1, §2

[15] = molecular target: protein kinases (human kinome) (Homo sapiens, UniProt P53671); settings: experiment wp016
Excerpt: as §1, §2

[16] = molecular target: protein kinases (human kinome) (Homo sapiens, UniProt P24941)
Excerpt: as §1, §2

[17] = molecular target: protein kinases (human kinome) (Homo sapiens, UniProt Q05397); settings: experiment wp011
Excerpt: as §1, §2

[18] = molecular target: protein kinases (human kinome) (Homo sapiens, UniProt P06493); settings: CDK1 P06493; experiment wp146
Excerpt: as §1, §2

[19] = molecular target: protein kinases (human kinome) (Homo sapiens, UniProt P45984); settings: MAPK9 P45984-1; experiment wp146
Excerpt: as §1, §2

[20] = molecular target: protein kinases (human kinome) (Homo sapiens, UniProt Q8TDR2); settings: experiment wp114
Excerpt: as §1, §2

[21] = experiment wp016, direction of change down
[22] = experiment wp146, direction of change down

protein kinases (human kinome) (Homo sapiens, UniProt P16591), sequence (P16591 whole entry): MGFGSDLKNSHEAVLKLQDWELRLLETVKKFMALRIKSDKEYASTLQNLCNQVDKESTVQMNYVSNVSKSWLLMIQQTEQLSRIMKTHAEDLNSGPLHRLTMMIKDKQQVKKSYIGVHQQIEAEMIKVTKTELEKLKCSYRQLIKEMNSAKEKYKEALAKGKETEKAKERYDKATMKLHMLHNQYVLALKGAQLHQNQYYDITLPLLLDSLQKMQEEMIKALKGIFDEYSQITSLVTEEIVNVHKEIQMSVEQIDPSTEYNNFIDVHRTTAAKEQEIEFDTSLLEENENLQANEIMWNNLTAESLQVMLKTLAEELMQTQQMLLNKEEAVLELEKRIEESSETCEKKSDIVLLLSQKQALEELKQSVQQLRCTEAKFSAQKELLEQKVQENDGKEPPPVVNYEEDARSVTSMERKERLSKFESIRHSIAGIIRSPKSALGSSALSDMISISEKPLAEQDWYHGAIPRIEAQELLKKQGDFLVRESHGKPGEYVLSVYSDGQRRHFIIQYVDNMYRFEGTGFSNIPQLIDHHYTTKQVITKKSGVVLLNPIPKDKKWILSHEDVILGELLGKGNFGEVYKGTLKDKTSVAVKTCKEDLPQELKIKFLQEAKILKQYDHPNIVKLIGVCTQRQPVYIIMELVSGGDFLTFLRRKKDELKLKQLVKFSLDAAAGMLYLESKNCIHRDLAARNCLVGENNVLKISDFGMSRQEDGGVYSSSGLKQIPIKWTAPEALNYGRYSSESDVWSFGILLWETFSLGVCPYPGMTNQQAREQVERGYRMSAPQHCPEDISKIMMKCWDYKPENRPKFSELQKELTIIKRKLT
protein kinases (human kinome) (Homo sapiens, UniProt P50613), sequence (P50613 whole entry): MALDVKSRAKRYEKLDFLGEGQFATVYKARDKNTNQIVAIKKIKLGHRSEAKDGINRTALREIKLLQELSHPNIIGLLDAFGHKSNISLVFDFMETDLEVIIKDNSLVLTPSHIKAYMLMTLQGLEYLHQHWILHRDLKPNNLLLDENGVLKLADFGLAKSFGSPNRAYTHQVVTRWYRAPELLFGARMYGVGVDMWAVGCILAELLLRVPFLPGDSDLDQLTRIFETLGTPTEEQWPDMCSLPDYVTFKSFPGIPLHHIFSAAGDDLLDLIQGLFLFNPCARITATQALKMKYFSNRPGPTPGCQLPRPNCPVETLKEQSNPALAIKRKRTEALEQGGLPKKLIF
protein kinases (human kinome) (Homo sapiens, UniProt Q2M2I8), sequence (Q2M2I8 whole entry): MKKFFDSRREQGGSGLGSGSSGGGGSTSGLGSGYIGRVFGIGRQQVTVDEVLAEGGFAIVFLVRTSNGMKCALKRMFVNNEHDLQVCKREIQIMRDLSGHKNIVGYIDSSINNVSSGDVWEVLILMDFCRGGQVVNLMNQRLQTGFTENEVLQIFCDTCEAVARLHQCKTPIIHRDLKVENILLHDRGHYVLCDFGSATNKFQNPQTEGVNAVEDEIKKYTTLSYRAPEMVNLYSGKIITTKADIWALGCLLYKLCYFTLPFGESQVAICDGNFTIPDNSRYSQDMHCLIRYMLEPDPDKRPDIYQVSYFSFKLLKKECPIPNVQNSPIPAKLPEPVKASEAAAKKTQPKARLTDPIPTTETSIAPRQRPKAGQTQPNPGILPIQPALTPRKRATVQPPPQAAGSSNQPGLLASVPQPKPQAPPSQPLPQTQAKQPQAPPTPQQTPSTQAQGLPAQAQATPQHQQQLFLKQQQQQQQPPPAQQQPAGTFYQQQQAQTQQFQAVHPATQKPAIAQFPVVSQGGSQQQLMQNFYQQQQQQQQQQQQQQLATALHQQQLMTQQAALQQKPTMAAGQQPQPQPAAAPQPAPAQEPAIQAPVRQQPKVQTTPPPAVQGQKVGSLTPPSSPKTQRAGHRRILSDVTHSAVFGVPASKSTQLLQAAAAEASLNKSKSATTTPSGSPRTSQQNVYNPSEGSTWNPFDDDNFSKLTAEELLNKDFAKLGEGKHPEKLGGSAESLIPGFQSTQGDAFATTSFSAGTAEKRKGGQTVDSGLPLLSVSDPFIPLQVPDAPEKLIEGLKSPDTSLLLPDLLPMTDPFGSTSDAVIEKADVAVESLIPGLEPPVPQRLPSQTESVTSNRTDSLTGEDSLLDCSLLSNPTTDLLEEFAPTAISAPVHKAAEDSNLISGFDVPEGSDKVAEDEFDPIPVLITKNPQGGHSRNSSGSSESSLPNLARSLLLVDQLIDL
protein kinases (human kinome) (Homo sapiens, UniProt Q00535), sequence (Q00535 whole entry): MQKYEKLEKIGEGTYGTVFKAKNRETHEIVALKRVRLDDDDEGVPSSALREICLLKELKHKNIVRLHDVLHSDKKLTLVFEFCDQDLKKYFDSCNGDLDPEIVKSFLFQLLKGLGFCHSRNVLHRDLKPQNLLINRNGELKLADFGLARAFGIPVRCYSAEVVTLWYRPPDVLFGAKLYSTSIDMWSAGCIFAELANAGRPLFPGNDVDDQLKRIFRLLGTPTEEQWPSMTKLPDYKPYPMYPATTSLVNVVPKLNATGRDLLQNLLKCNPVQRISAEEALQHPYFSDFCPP
protein kinases (human kinome) (Homo sapiens, UniProt Q00537), sequence (Q00537 whole entry): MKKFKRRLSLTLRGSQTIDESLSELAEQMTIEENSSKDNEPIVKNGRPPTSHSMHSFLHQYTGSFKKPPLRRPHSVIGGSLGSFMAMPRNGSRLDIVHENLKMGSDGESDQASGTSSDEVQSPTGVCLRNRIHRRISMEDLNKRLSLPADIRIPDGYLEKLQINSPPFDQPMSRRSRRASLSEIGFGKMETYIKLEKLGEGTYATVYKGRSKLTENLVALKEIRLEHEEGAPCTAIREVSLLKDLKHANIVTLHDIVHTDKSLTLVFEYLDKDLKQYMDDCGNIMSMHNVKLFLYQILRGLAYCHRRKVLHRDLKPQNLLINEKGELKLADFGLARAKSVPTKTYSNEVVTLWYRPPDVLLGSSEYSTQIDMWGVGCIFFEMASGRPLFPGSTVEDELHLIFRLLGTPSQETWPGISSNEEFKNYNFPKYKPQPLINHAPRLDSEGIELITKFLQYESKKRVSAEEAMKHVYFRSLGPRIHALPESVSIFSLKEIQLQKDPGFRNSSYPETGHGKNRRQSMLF
protein kinases (human kinome) (Homo sapiens, UniProt Q9NYV4), sequence (Q9NYV4 whole entry): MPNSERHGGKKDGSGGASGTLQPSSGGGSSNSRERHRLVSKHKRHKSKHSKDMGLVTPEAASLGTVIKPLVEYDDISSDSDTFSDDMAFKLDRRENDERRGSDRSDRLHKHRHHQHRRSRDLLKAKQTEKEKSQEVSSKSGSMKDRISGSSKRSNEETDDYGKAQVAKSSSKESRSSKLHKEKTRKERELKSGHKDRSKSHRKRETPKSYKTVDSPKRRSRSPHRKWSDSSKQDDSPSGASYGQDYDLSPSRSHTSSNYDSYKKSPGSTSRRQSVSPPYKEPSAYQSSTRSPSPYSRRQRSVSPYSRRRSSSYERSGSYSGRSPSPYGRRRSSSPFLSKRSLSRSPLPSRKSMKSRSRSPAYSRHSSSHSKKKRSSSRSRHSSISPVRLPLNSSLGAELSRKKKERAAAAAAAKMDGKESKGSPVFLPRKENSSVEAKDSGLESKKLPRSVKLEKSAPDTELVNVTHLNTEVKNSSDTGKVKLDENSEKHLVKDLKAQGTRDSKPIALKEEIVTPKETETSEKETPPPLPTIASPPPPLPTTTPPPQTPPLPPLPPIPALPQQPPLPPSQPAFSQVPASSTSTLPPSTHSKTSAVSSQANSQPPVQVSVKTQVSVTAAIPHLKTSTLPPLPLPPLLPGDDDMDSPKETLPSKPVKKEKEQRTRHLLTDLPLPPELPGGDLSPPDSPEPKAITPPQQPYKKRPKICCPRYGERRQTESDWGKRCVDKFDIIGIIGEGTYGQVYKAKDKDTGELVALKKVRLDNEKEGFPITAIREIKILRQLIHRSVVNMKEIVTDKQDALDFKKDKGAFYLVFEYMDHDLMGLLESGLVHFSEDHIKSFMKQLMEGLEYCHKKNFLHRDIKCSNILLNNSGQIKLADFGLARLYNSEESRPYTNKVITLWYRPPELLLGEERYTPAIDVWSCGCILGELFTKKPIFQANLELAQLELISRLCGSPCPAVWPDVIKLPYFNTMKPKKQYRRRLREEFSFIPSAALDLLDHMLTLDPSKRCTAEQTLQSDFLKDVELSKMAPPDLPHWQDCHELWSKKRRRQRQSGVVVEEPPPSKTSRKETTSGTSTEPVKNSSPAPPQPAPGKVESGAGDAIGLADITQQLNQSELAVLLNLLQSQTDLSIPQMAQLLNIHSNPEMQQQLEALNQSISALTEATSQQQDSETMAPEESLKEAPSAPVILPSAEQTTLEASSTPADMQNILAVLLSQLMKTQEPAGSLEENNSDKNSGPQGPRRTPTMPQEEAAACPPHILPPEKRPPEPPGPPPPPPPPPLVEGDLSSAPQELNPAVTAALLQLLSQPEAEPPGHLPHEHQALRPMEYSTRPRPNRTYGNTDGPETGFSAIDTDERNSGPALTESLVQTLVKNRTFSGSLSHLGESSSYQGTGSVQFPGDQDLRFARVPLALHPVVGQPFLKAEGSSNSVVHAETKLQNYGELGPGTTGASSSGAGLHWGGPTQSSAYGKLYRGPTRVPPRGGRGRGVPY
protein kinases (human kinome) (Homo sapiens, UniProt P06493), sequence (P06493 whole entry): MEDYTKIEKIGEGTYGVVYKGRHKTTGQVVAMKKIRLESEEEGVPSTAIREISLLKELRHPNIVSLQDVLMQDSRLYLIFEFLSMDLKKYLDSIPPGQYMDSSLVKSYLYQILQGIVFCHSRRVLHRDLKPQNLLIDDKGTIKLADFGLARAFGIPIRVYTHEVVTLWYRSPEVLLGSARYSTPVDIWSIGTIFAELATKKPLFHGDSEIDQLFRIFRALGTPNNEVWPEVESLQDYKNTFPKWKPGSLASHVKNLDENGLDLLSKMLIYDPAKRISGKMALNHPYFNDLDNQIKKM

N#CCc1ccc(Nc2nc(NCCCNC(=O)CCCCCCNC(=O)COc3cccc4c3C(=O)N(C3CCC(=O)NC3=O)C4=O)cc(Nc3cc(C4CC4)n[nH]3)n2)cc1 (centres unmarked) [SB1.G.190]
logFC [1]: −0.8894
logFC GSK3A [1]: −0.8894
logFC AAK1 ([2]; AAK1 (Q2M218-1), experiment wp056, down): −1.489
logFC AAK1 ([2]; AAK1, accession Q2M218-1, experiment wp056, direction of change down): −1.489
logFC GSK3B ([3]; Accession P49841-2, direction down): −0.631
logFC GSK3B ([3]; GSK3B P49841-2): −0.631
logFC AURKA (O14965) ([4]; experiment wp056): −0.843
logFC [5]: −0.3508
logFC BMP2K [5]: −0.3508

CC(C)S(=O)(=O)c1ccccc1Nc1nc(Nc2ccc(N3CCN(CCOCCOCCOCCNC(=O)CNc4cccc5c4C(=O)N(C4CCC(=O)NC4=O)C5=O)CC3)cc2)ncc1Cl (centres unmarked) [SK.3.87]
logFC ([6]; PTK2B (Q14289-1) protein abundance, degrader vs DMSO, down): −3.217
logFC PTK2B ([6]; PTK2B, accession Q14289-1, experiment wp016, direction of change down): −3.217
logFC of CDK5 ([7]; Accession Q00535, experiment wp016): −0.5732
logFC CDK5 (Q00535) [7, 21]: −0.5732
logFC [8]: −0.5325
logFC CDK7 ([8]; experiment wp016): −0.5325
logFC CDK12 ([9]; Accession Q9NYV4-1, experiment wp016): −0.5073
logFC CDK12 ([9]; CDK12 (Q9NYV4-1), experiment wp016): −0.5073
logFC of CDK17 ([10]; experiment wp016): −0.6139
logFC CDK17 (Q00537) ([10]; experiment wp016): −0.6139
logFC of FER (P16591-1) ([11]; Experiment wp016): −1.97
logFC of FER ([11]; experiment wp016): −1.97
logFC of BLK ([12]; BLK P51451, experiment wp016): −0.9329
logFC of BLK (P51451) ([12]; Experiment wp016, down): −0.9329
logFC AAK1 ([2]; AAK1 (Q2M218-1), experiment wp016, down): −0.7307
logFC AAK1 ([2]; AAK1, accession Q2M218-1, experiment wp016, direction of change down): −0.7307
logFC [3]: −0.4714
logFC LCK ([3]; LCK, accession P06239-3, experiment wp016, direction of change down): −0.3484
logFC CDK9 (P50750-2) ([3]; experiment wp016): −0.4714
logFC LCK (P06239-3) [3, 21]: −0.3484
logFC WEE1 (P30291-1) [13]: −0.9273
logFC AURKA (O14965) ([4]; experiment wp016): −1.381
logFC ITK (Q08881) [14]: −1.868
logFC ITK (Q08881) ([14]; direction of change down): −1.868
logFC LIMK2 ([15]; LIMK2 (P53671), down): −0.378
logFC of LIMK2 ([15]; LIMK2 P53671): −0.378
logFC CDK2 (P24941-1) ([16]; experiment wp016): −0.3797
logFC CDK2 (P24941-1) [16, 21]: −0.3797

COc1cc(N2CCN(CCOCCOCCNC(=O)CNc3cccc4c3C(=O)N(C3CCC(=O)NC3=O)C4=O)CC2)ccc1Nc1ncc(Cl)c(Nc2ccccc2S(=O)(=O)C(C)C)n1 (centres unmarked) [TL13.12]
logFC PTK2 ([17]; Accession Q05397, direction down): −1.365
logFC PTK2 ([17]; PTK2 Q05397): −1.365
logFC of FER (P16591-1) ([11]; Experiment wp011): −0.8459
logFC of FER ([11]; experiment wp011): −0.8459
logFC AURKA (O14965) ([4]; experiment wp011): −0.5988

NC(=O)c1c(F)cccc1Nc1nc(NC2CCN(S(=O)(=O)CCNC(=O)CCCCCCCCOc3cccc4c3C(=O)N(C3CCC(=O)NC3=O)C4=O)CC2)ncc1Br (centres unmarked) [TMX.01.160]
logFC [18]: −1.423
logFC CDK1 [18]: −1.423
logFC CDK5 (Q00535) ([7]; experiment wp146): −2.901
logFC CDK5 (Q00535) [7, 22]: −2.901
logFC [8]: −0.601
logFC CDK7 ([8]; experiment wp146): −0.601
logFC CDK12 ([9]; Accession Q9NYV4-1, experiment wp146): −0.5118
logFC CDK12 ([9]; CDK12 (Q9NYV4-1), experiment wp146): −0.5118
logFC of CDK17 ([10]; experiment wp146): −1.627
logFC CDK17 (Q00537) ([10]; experiment wp146): −1.627
logFC [3]: −1.181
logFC MAPK8 (P45983-4) ([3]; Experiment wp146, direction down): −2.112
logFC MAPK8 ([3]; MAPK8 P45983-4, experiment wp146): −2.112
logFC RPS6KA1 ([3]; RPS6KA1 (Q15418-2), experiment wp146): −0.4317
logFC CDK9 (P50750-2) ([3]; experiment wp146): −1.181
logFC CDK16 (Q00536-2) ([3]; experiment wp146): −1.11
logFC RPS6KA1 (Q15418-2) ([3]; experiment wp146): −0.4317
logFC AURKA (O14965) ([4]; experiment wp146): −2.621
logFC CDK2 (P24941-1) ([16]; experiment wp146): −1.971
logFC CDK2 (P24941-1) [16, 22]: −1.971
logFC [19]: −3.32
logFC MAPK9 [19]: −3.32

Nc1ncc(-c2ccc(S(=O)(=O)N(CCCNC(=O)CCOCCOCCOCCOCCOCCNc3cccc4c3C(=O)N(C3CCC(=O)NC3=O)C4=O)C3CC3)cc2)cc1-c1ccc2c(c1)CCNC2=O (centres unmarked) [WH.10414.099]
logFC STK35 ([20]; Accession Q8TDR2, direction down): −0.8902
logFC STK35 ([20]; STK35 (Q8TDR2)): −0.8902
logFC CSNK1D ([3]; Accession P48730-2, direction down): −0.6187
logFC CSNK1D ([3]; CSNK1D P48730-2): −0.6187
